Measurements taken from patent publication US20240189255A1, “METHODS OF TREATMENT OF OSTEOARTHRITIS WITH TRANSDERMAL CANNABIDIOL GEL” (ZYNERBA PHARMACEUTICALS, INC., priority 2017, published 2024).

What was measured:
[1] = Pharmacokinetic data: plasma concentrations in the 12-week osteoarthritis trial; format: in vivo, human
Method: (§1) Three hundred and twenty (320) patients aged 41 to 78 years of age with confirmed osteoarthritis of the knee were randomized in the double-blind, multi-center trial. Patients who completed the one-week washout and the seven-to-10-day baseline phase were randomized 1:1:1 to receive either 250 mg of CBD daily, 500 mg of CBD daily, or placebo, for 12 weeks. […] The 250 mg and 500 mg doses were administered as a 4.2% (wt/wt) CBD gel.

[2] = test system: patients with confirmed osteoarthritis of the knee; experiment: Double-blind, multi-center, placebo-controlled 12-week trial: worst knee pain score, WOMAC physical function, composite responders; format: in vivo, human; design: mean reduction from baseline in average worst knee pain scores / Worst Knee Pain Score: scale not given here
Method: as §1
Across all participants, patients on 250 mg of CBD daily dosage achieved a 2.64 mean reduction from baseline in average worst knee pain scores at week 12; patients on 500 mg of CBD daily achieved a 2.83 mean reduction from baseline in average worst knee pain scores at week 12; and patients on placebo achieved a 2.37 mean reduction from baseline in average worst knee pain scores at week 12. […] A mixed-model repeated measures (MMRM) model was used to test for differences between active treatment groups and placebo based on all weekly average worst knee pain scores from Baseline to Week 12.
Over an initial 7 day period, patients were instructed to end use of other osteoarthritic treatment such as NSAID or COX-2 inhibitor, but were permitted to use acetaminophen for rescue use. At this time, baseline mean worst knee pain was identified for each patient. During the study, rescue use of acetaminophen was permitted for both active and placebo study groups, and there was no difference among the groups in prevalence of rescue use.
Fisher's Exact Test was used to test for differences in composite responders between each active treatment and placebo at LOCF. In the composite responder analysis, a positive response on the composite response analysis indicated a ≥30 percent reduction in worst average daily pain scores and a >20 percent improvement in WOMAC (Western Ontario & McMaster Universities Osteoarthritis Index) physical function score.
The study data was also analyzed with regard to the active dose per weight of the patient (i.e., dosage/weight in mg CBD/kg weight of patient). For this analysis, the patient population was divided into three groups: 0-25 percentile, 25-75 percentile, and 75-100 percentile, by dose/weight. Table 9 is a summary of composite responder analysis at last observation Dose/Weight Quartile 0-25%. Table 10 is a summary of composite responder analysis at last observation dose/weight quartile 25-75%. Table 11 is a summary of composite responder analysis at last observation dose/weight quartile 75-100%.

[3] = 250 mg CBD, efficacy patients, last observation, 93 assessed
[4] = 250 mg CBD, efficacy patients, last observation, 106 assessed
[5] = 500 mg CBD, efficacy patients, last observation, 91 assessed
[6] = 500 mg CBD, efficacy patients, last observation, 105 assessed
[7] = Dose/Weight Quartile 0-25%, 250 mg, last observation, 46 assessed, p=0.010

In the case of `C=C(C)[C@@H]1CCC(C)=C[C@H]1c1c(O)cc(CCCCC)cc1O` [CBD, 2-[3-methyl-6-(1-methylethenyl)-2-cyclohexen-1-yl]-5-pentyl-1,3-benzenediol], the “dose media plasma concentrations, dose relationship” value ([1]; 500 mg and 250 mg daily CBD doses) is reported as “dose proportional”, the “plasma concentration of the 500 mg dose relative to the 250 mg dose” value ([1]; 500 mg vs 250 mg daily) is reported as “approximately two times” and the “20 Percent Responders in Physical Function WOMAC Score: No, number of patients” value [2, 3] is reported as 33. The “20 Percent Responders in Physical Function WOMAC Score: No, percent of patients” value [2, 3] was “(35.5) %”, the “20 Percent Responders in Physical Function WOMAC Score: Yes, number of patients” value [2, 3] was 60 and the “20 Percent Responders in Physical Function WOMAC Score: Yes, percent of patients” value (shortened to “20 Percent Responders … Yes, percent of patients”) [2, 3] was “(64.5) %”. For the same compound, the “Composite Responder: No, number of patients” value [2, 3] was 44, the “Composite Responder: No, percent of patients” value [2, 3] was “(47.3) %” and the “Composite Responder: Yes, number of patients” value ([2]; 250 mg CBD, efficacy patients, last observation, 93 assessed, p=0.016 vs placebo) was 49. For the same compound, the “30 Percent Reduction in Diary Pain: No, number of patients” value [2, 4] was 53, the “30 Percent Reduction in Diary Pain: No, percent of patients” value [2, 4] was “(50.0) %” and the “30 Percent Reduction in Diary Pain: Yes, number of patients” value [2, 4] was 53. For the same compound, the “30 Percent Reduction in Diary Pain: Yes, percent of patients” value [2, 4] was “(50.0) %”, the “responder rate based on ≥30% reduction in worst pain severity” value ([2]; 250 mg of CBD daily, week 8, p=0.037) was “Statistically significant” and the “20 Percent Responders in Physical Function WOMAC Score: No, number of patients” value [2, 5] was 37. The “20 Percent Responders in Physical Function WOMAC Score: No, percent of patients” value [2, 5] was “(40.7) %”, the “20 Percent Responders in Physical Function WOMAC Score: Yes, number of patients” value [2, 5] was 54 and the “20 Percent Responders … Yes, percent of patients” value [2, 5] was “(59.3) %”. For the same compound, the “Composite Responder: No, number of patients” value [2, 5] was 50, the “Composite Responder: No, percent of patients” value [2, 5] was “(54.9) %” and the “Composite Responder: Yes, number of patients” value ([2]; 500 mg CBD, efficacy patients, last observation, 91 assessed, p=0.169 vs placebo) was 41. For the same compound, the “30 Percent Reduction in Diary Pain: No, number of patients” value [2, 6] was 54, the “30 Percent Reduction in Diary Pain: No, percent of patients” value [2, 6] was “(51.4) %” and the “30 Percent Reduction in Diary Pain: Yes, number of patients” value [2, 6] was 51. The “30 Percent Reduction in Diary Pain: Yes, percent of patients” value [2, 6] was “(48.6) %”, the “20 Percent Responders … Yes, percent of patients” value ([2]; Dose/Weight Quartile 0-25%, 250 mg, last observation, 46 assessed) was 69.6% and the “Composite Responders: Yes, number of patients” value [2, 7] was 27. The “Composite Responders: Yes, percent of patients” value [2, 7] was 58.7%, the “mean reduction from baseline in average worst knee pain scores” value (from here on “mean reduction from baseline”) ([2]; all participants, 250 mg CBD daily, week 12, placebo 2.37, not statistically significant) was 2.64 and the “mean reduction from baseline” value ([2]; all participants, 500 mg CBD daily, week 12, placebo 2.37, not statistically significant) was 2.83. The “mean reduction from baseline” value ([2]; baseline pain score ≥7, both CBD dosage groups combined, week 4, placebo 1.6, p=0.029) was 2.17, the “mean reduction from baseline” value ([2]; baseline pain score ≥7, both CBD dosage groups combined, week 8, placebo 2.22, p=0.054) was 3.02 and the “mean reduction from baseline” value ([2]; baseline pain score ≥7, both CBD dosage groups combined, week 12, placebo 2.52, p=0.086) was 3.29. For the same compound, the “Composite Responders: Yes, percent of patients” value ([2]; dose/weight quartile 25-75%, 250 mg, last observation, 47 assessed, p=0.194) was 46.8%, the “Composite Responders: Yes, percent of patients” value ([2]; dose/weight quartile 25-75%, 500 mg, last observation, 45 assessed, p=0.133) was 48.9% and the “Composite Responders: Yes, percent of patients” value ([2]; dose/weight quartile 75-100%, 500 mg, last observation, 46 assessed, p=0.453) was 41.3%. For the same compound, the “Composite Responders” value ([2]; male patients, 250 mg, LOCF, placebo 27%, p=0.003) was 60%, the “Worst Knee Pain Score, % reduction” value ([2]; male patients, 250 mg, wk 4) was 24% and the “Worst Knee Pain Score” value ([2]; male patients, 250 mg, wk 4, baseline 6.77, p=0.156) was 5.05. For the same compound, the “Worst Knee Pain Score, % reduction” value ([2]; male patients, 250 mg, wk 8) was 34%, the “Worst Knee Pain Score” value ([2]; male patients, 250 mg, wk 8, baseline 6.77, p=0.066) was 4.47 and the “Worst Knee Pain Score, % reduction” value ([2]; male patients, 250 mg, wk 12) was 39%. For the same compound, the “Worst Knee Pain Score” value ([2]; male patients, 250 mg, wk 12, n=47, baseline 6.77, p=0.049) was 4.16, the “Composite Responders” value ([2]; male patients, 500 mg, LOCF, placebo 27%, p=0.174) was 41% and the “Worst Knee Pain Score, % reduction” value ([2]; male patients, 500 mg, wk 4) was 22%. For the same compound, the “Worst Knee Pain Score” value ([2]; male patients, 500 mg, wk 4, baseline 6.85, p=0.323) was 5.33, the “Worst Knee Pain Score, % reduction” value ([2]; male patients, 500 mg, wk 8) was 30% and the “Worst Knee Pain Score” value ([2]; male patients, 500 mg, wk 8, baseline 6.85, p=0.474) was 4.73. For the same compound, the “Worst Knee Pain Score, % reduction” value ([2]; male patients, 500 mg, wk 12) was 33%, the “Worst Knee Pain Score” value ([2]; male patients, 500 mg, wk 12, n=38, baseline 6.85, p=0.193) was 4.44 and the “mean reduction from baseline” value ([2]; men, 250 mg of CBD daily, week 4, placebo 1.19, p=0.156) was 1.65. The “mean reduction from baseline” value ([2]; men, 250 mg of CBD daily, week 8, placebo 1.56, p=0.066) was 2.30, the “mean reduction from baseline” value ([2]; men, 250 mg of CBD daily, week 12, placebo 1.70, p=0.049) was 2.68 and the “pain reduction over placebo” value ([2]; patients having a baseline knee pain score less than 7, FIG. 10) was “not statistically significant”. The “Composite Responders” value ([2]; patients with ≥7 mean baseline pain score, CBD groups combined, placebo 33%, p=0.083) was 51%, the “Worst Knee Pain Score, % reduction” value ([2]; patients with ≥7 mean baseline pain score, CBD groups combined, wk4) was 28% and the “Worst Knee Pain Score” value ([2]; patients with ≥7 mean baseline pain score, CBD groups combined, wk4, baseline 7.7, p=0.029) was 5.45. The “Worst Knee Pain Score, % reduction” value ([2]; patients with ≥7 mean baseline pain score, CBD groups combined, wk8) was 40%, the “Worst Knee Pain Score” value ([2]; patients with ≥7 mean baseline pain score, CBD groups combined, wk8, baseline 7.7, p=0.054) was 4.61 and the “Worst Knee Pain Score, % reduction” value ([2]; patients with ≥7 mean baseline pain score, CBD groups combined, wk12) was 43%. The “Worst Knee Pain Score” value ([2]; patients with ≥7 mean baseline pain score, CBD groups combined, wk12, n=75, baseline 7.7, p=0.086) was 4.34, the “Worst Knee Pain Score, % reduction” value ([2]; total patients, 250 mg, wk 4) was 24% and the “Worst Knee Pain Score” value ([2]; total patients, 250 mg, wk 4, baseline 6.8, p=0.432) was 5.09. The “Worst Knee Pain Score, % reduction” value ([2]; total patients, 250 mg, wk 8) was 34%, the “Worst Knee Pain Score” value ([2]; total patients, 250 mg, wk 8, baseline 6.8, p=0.193) was 4.43 and the “Worst Knee Pain Score, % reduction” value ([2]; total patients, 250 mg, wk 12) was 38%. The “Worst Knee Pain Score” value ([2]; total patients, 250 mg, wk 12, n=76, baseline 6.8, p=0.517) was 4.23, the “Worst Knee Pain Score, % reduction” value ([2]; total patients, 500 mg, wk 4) was 27% and the “Worst Knee Pain Score” value ([2]; total patients, 500 mg, wk 4, baseline 6.87, p=0.067) was 4.96. For the same compound, the “Worst Knee Pain Score, % reduction” value ([2]; total patients, 500 mg, wk 8) was 37%, the “Worst Knee Pain Score” value ([2]; total patients, 500 mg, wk 8, baseline 6.87, p=0.21) was 4.27 and the “Worst Knee Pain Score, % reduction” value ([2]; total patients, 500 mg, wk 12) was 41%. For the same compound, the “Worst Knee Pain Score” value ([2]; total patients, 500 mg, wk 12, n=75, baseline 6.87, p=0.249) was 3.99.
